Laboratory results published in patent US20250318529A1, “METHOD FOR MOSQUITO CONTROL” (SYNGENTA CROP PROTECTION AG, priority 2022, published 2025).

What was measured:
Assay in all cases: CDC bottle bioassay, adult female mosquitoes
[1] = test system: An. gambiae Tiassale; assay type: in vivo, Anopheles gambiae; conditions: pyrethroid Resistant
Experimental: (§1) Examples B1-B3: Bottle Assay Based on the Guideline for Evaluating Insecticide Resistance in Vectors Using the CDC Bottle Bioassay
(§2) 1 ml of acetone containing a test compound at a defined concentration, and 1500 ppm Mero (Bayer Crop Science) was added to a 250 ml glass bottle, the bottle was placed on a rolling table to coat the inner surfaces as the solvent evaporated. Once dry, approximately twenty five non-blood fed adult female mosquitoes of the appropriate species and strains (each two or three days old) were aspirated from the stock culture and gently blown into the exposure bottle. The lid of the bottle was replaced, and the bottle placed upright out of direct sun light under standard culture conditions, nominally 28° C. and 60-80% relative humidity.
(§3) A stopwatch was started, and the assessment of the knock-down were made after 60 minutes. A mosquito was said to be knocked down if it was unable to stand, following the CDC definition.
(§4) After one hour the mosquitoes were carefully removed from the bottle with an aspirator and placed in a recovery cup. The mosquitoes were supplied with a 10% sucrose solution on a cotton wool bung, and stored under culture conditions. Assessments of the mortality were made after 24 and 48 hours.
(§5) Each treatment was replicated a minimum of three times, with the mean knockdown or mortality recorded. In each study, a set of bottles was infested with a known insecticide susceptible strain of mosquitoes from the same genera as the resistant strains.

[2] = test system: An. gambiae M'Bé; assay type: in vivo, Anopheles gambiae; conditions: pyrethroid Resistant
Experimental: as §1, §2, §3, §4, §5

[3] = test system: An. gambiae KisKDR; assay type: in vivo, Anopheles gambiae; conditions: pyrethroid Resistant
Experimental: as §1, §2, §3, §4, §5

[4] = test system: An. gambiae Kisumu; assay type: in vivo, Anopheles gambiae; conditions: pyrethroid Susceptible
Experimental: as §1
[…] Once dry, approximately twenty five non-blood fed adult female mosquitoes of the appropriate species and strains (each two or three days old) were aspirated from the stock culture and gently blown into the exposure bottle. The lid of the bottle was replaced, and the bottle placed upright out of direct sun light under standard culture conditions, nominally 28° C. and 60-80% relative humidity.
as §3, §4, §5

[5] = test system: Anopheles stephensi; assay type: in vivo; conditions: pyrethroid Susceptible
Experimental: as §1, §2, §3, §4, §5

[6] = Table B1, 25 μg/bottle + 1.5 mg Mero
[7] = Table B1, 50 μg/bottle + 1.5 mg Mero
[8] = Table B1, 250 μg/bottle + 1.5 mg Mero
[9] = Table B3, 25 μg/bottle + 1.5 mg Mero
[10] = Table B3, 50 μg/bottle + 1.5 mg Mero
[11] = Table B3, 250 μg/bottle + 1.5 mg Mero
[12] = Table B2, 50 μg/bottle + 1.5 mg Mero
[13] = Table B2, 250 μg/bottle + 1.5 mg Mero

Structure (SMILES): CCN1OCC(NC(=O)c2ccc(C3=NOC(c4cc(Cl)c(F)c(Cl)c4)(C(F)(F)F)C3)cc2C)C1=O (stereo not shown) [Isocycloseram]
- Mean % mortality 60 minutes [1, 6]: 38.4%
- Mean % mortality 24 hours [1, 6]: 89.6%
- Mean % mortality 60 minutes [1, 7]: 84%
- Mean % mortality 24 hours [1, 7]: 100%
- Mean % mortality 60 minutes [1, 8]: 98.4%
- Mean % mortality 24 hours [1, 8]: 100%
- Mean % mortality 60 minutes [1, 9]: 96.9%
- Mean % mortality 24 hours [1, 9]: 100%
- Mean % mortality 60 minutes [1, 10]: 99.2%
- Mean % mortality 24 hours [1, 10]: 100%
- Mean % mortality 60 minutes [1, 11]: 99.1%
- Mean % mortality 24 hours [1, 11]: 100%
- Mean % mortality 60 minutes [2, 12]: 37.8%
- Mean % mortality 24 hours [2, 12]: 70.3%
- Mean % mortality 60 minutes [2, 13]: 89.3%
- Mean % mortality 24 hours [2, 13]: 100%
- Mean % mortality 60 minutes [3, 12]: 86.7%
- Mean % mortality 24 hours [3, 12]: 100%
- Mean % mortality 60 minutes [3, 13]: 100%
- Mean % mortality 24 hours [3, 13]: 100%
- Mean % mortality 60 minutes [4, 6]: 56.8%
- Mean % mortality 24 hours [4, 6]: 89.6%
- Mean % mortality 60 minutes [4, 7]: 88.8%
- Mean % mortality 24 hours [4, 7]: 100%
- Mean % mortality 60 minutes [4, 8]: 99.2%
- Mean % mortality 24 hours [4, 8]: 100%
- Mean % mortality 60 minutes [4, 12]: 80.77%
- Mean % mortality 24 hours [4, 12]: 100%
- Mean % mortality 60 minutes [4, 13]: 80.77%
- Mean % mortality 24 hours [4, 13]: 100%
- Mean % mortality 60 minutes [4, 9]: 98.8%
- Mean % mortality 24 hours [4, 9]: 100%
- Mean % mortality 60 minutes [4, 10]: 96.4%
- Mean % mortality 24 hours [4, 10]: 100%
- Mean % mortality 60 minutes [4, 11]: 99.2%
- Mean % mortality 24 hours [4, 11]: 100%
- Mean % mortality 60 minutes [5, 6]: 12%
- Mean % mortality 24 hours [5, 6]: 70.4%
- Mean % mortality 60 minutes [5, 7]: 60.8%
- Mean % mortality 24 hours [5, 7]: 98.4%
- Mean % mortality 60 minutes [5, 8]: 79.2%
- Mean % mortality 24 hours [5, 8]: 100%

Structure (SMILES): CC1(C)C(C=C(Cl)Cl)C1C(=O)OCc1cccc(Oc2ccccc2)c1 (stereo not shown) [Permethrin, reference compound]
- Mean % mortality 60 minutes ([1]; Table B1, 20 μg/bottle): 45.6%
- Mean % mortality 24 hours ([1]; Table B1, 20 μg/bottle): 80%
- Mean % mortality 60 minutes ([1]; Table B3, 20 μg/bottle): 99.1%
- Mean % mortality 24 hours ([1]; Table B3, 20 μg/bottle): 91.7%
- Mean % mortality 60 minutes ([2]; Table B2, 20 μg/bottle): 12.5%
- Mean % mortality 24 hours ([2]; Table B2, 20 μg/bottle): 13.9%
- Mean % mortality 60 minutes ([3]; Table B2, 20 μg/bottle): 100%
- Mean % mortality 24 hours ([3]; Table B2, 20 μg/bottle): 82.1%
- Mean % mortality 60 minutes ([4]; Table B1, 20 μg/bottle): 100%
- Mean % mortality 24 hours ([4]; Table B1, 20 μg/bottle): 100%
- Mean % mortality 60 minutes ([4]; Table B2, 20 μg/bottle): 100%
- Mean % mortality 24 hours ([4]; Table B2, 20 μg/bottle): 100%
- Mean % mortality 60 minutes ([4]; Table B3, 20 μg/bottle): 100%
- Mean % mortality 24 hours ([4]; Table B3, 20 μg/bottle): 100%
- Mean % mortality 60 minutes ([5]; Table B1, 20 μg/bottle): 100%
- Mean % mortality 24 hours ([5]; Table B1, 20 μg/bottle): 100%
